According to US9617282B2, “Macrocyclic compounds as IRAK4 inhibitors for the treatment of inflammatory diseases” (BIOGEN MA INC., priority 2013, dated 2017):
Read-outs that look alike come from different tables or passages of the source.

Biological target: IRAK4 (Homo sapiens (Human), UniProt Q9NWZ3)
Assay: IRAK-4 biochemical kinase assay, AlphaScreen format
Description: The biochemical assay is in a AlphaScreen format. The kinase reaction is based on the IRAK-4 phosphorylation of a biotin labeled peptide. The phosphopeptide is incubated with anti-phosphothreonine antibody as well as streptavidin- and protein A-coated beads. Binding of the protein-A coated beads to the antibody and the streptavidin beads to the peptide, leads to an energy transfer from one bead to the other, ultimately producing a luminescent/fluorescent signal.

[1] = 1 nM IRAK4, 1.6 μM peptide, 10 μM ATP, 3.5 h at RT, class symbols
[2] = 1 nM IRAK4, 1.6 μM peptide, 10 μM ATP, 3.5 h at RT, given as numeric bound

IRAK4, sequence (Q9NWZ3 whole entry, species assumed): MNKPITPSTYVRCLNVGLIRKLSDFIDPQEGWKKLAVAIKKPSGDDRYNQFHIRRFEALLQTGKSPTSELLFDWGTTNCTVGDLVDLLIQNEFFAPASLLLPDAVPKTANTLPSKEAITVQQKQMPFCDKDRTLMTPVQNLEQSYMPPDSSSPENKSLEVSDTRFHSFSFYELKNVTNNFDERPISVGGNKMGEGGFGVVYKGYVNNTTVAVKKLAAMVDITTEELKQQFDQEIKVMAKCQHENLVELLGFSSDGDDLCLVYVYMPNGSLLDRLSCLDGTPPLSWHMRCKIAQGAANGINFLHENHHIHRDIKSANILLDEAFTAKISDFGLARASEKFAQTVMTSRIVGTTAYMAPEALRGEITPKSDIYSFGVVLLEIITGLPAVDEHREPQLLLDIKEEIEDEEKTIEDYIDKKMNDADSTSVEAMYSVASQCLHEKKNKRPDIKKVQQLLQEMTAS

Row | SMILES | IC50 [1] | further results
1 | O=C1Nc2ccccc2OCCCCCOc2cc(ccn2)-c2nc1co2 [Compound 3] | < 1 µM | –
2 | O=C1Nc2ccccc2OCCCCCCc2cc(ccn2)-c2nc1co2 [Compound 5] | < 0.1 µM | –
3 | O=C1Nc2ccccc2OCCCCCCCn2cc(cn2)-c2nc1cs2 [Compound 6] | – | IC50: < 1 µM
4 | O=C1Nc2ccccc2OCCCCCCCn2cc(cn2)-c2nc1co2 [Compound 8] | < 0.1 µM | –
5 | O=C1NCCCCCCCCCn2cc(cn2)-c2nc1co2 [Compound 9] | < 1 µM | –
6 | CC1CCCCOc2ccccc2NC(=O)c2coc(n2)-c2ccnc(c2)N1 (stereo not drawn) [Compound 10] | < 0.1 µM | –
7 | CN1CCCCCOc2ccccc2NC(=O)c2coc(n2)-c2ccnc1c2 [Compound 11] | < 1 µM | –
8 | O=C1Nc2ccccc2OCCCCCNc2cc(ccn2)-c2nc1cs2 [Compound 13] | < 0.1 µM | –
9 | COC(=O)c1ccc2c(c1)NC(=O)c1csc(n1)-c1ccnc(c1)NCCCCCO2 [Compound 14] | – | IC50 [2]: > 10 µM
10 | O=C(O)c1ccc2c(c1)NC(=O)c1csc(n1)-c1ccnc(c1)NCCCCCO2 [Compound 15] | < 10 µM | –
11 | CNC(=O)c1ccc2c(c1)NC(=O)c1csc(n1)-c1ccnc(c1)NCCCCCO2 [Compound 17] | < 0.1 µM | –
12 | O=C(NCCN1CCCCC1)c1ccc2c(c1)NC(=O)c1csc(n1)-c1ccnc(c1)NCCCCCO2 [Compound 18] | < 0.1 µM | –
13 | O=C(NCCN1CCOCC1)c1ccc2c(c1)NC(=O)c1csc(n1)-c1ccnc(c1)NCCCCCO2 [Compound 19] | < 0.1 µM | –
14 | CN(C)C1CCN(C(=O)c2ccc3c(c2)NC(=O)c2csc(n2)-c2ccnc(c2)NCCCCCO3)C1 (stereo not drawn) [Compound 21] | < 0.1 µM | –
15 | O=C1Nc2cc(C(=O)N3CCOCC3)ccc2OCCCCCNc2cc(ccn2)-c2nc1cs2 [Compound 22] | < 0.1 µM | –
16 | CN1CCN(C(=O)c2ccc3c(c2)NC(=O)c2csc(n2)-c2ccnc(c2)NCCCCCO3)CC1 [Compound 23] | < 0.1 µM | –
17 | NC(=O)c1ccc2c(c1)NC(=O)c1csc(n1)-c1ccnc(c1)NCCCCCO2 [Compound 24] | < 0.1 µM | –
18 | CN(C)CCNC(=O)c1ccc2c(c1)OCCCCCNc1cc(ccn1)-c1nc(cs1)C(=O)N2 [Compound 25] | < 0.1 µM | –
19 | O=C1Nc2cc(CCCN3CCCCC3)ccc2OCCCCCNc2cc(ccn2)-c2nc1cs2 [Compound 26] | < 0.1 µM | –
20 | O=C1Nc2ccc(CCCN3CCCCC3)cc2OCCCCCNc2cc(ccn2)-c2nc1cs2 [Compound 27] | < 0.1 µM | –
21 | Cn1cc2c(n1)C(=O)NCCC/C=C/CCCN(C(=O)OC(C)(C)C)c1cc(ccn1)-c1nc(co1)C(=O)N2 [Compound 28] | < 1 µM | –
22 | Cn1cc2c(n1)C(=O)NCCCCNc1cc(ccn1)-c1nc(co1)C(=O)N2 [Compound 31] | < 0.1 µM | –
23 | Cn1cc2c(n1)C(=O)NCCCCCNc1cc(ccn1)-c1nc(co1)C(=O)N2 [Compound 33] | < 0.1 µM | –
24 | Cn1cc2c(n1)C(=O)NCCOCCOc1cc(ccn1)-c1nc(co1)C(=O)N2 [Compound 35] | < 0.1 µM | –
25 | O=C1Nc2cn(C3CCOCC3)nc2C(=O)NCCCCOc2cc(ccn2)-c2nc1co2 [Compound 36] | < 0.1 µM | –

Row | SMILES | IC50 [1] | further results
26 | Cn1cc2c(n1)C(=O)NCCCCCOc1cc(ccn1)-c1nc(co1)C(=O)N2 [Compound 37] | < 0.1 µM | –
27 | O=C1Nc2cn(C3CCOCC3)nc2C(=O)NCCCCCOc2cc(ccn2)-c2nc1co2 [Compound 38] | < 0.1 µM | –
28 | Cn1cc2c(n1)C(=O)NCCCCCc1cc(ccn1)-c1nc(co1)C(=O)N2 [Compound 39] | < 0.1 µM | –
29 | Cn1cc2c(n1)C(=O)NCCCCCn1cc(cn1)-c1nc(co1)C(=O)N2 [Compound 41] | < 1 µM | –
30 | O=C1Nc2cn(C3CCOCC3)nc2C(=O)NCCCCCn2cc(cn2)-c2nc1co2 [Compound 42] | < 1 µM | –
31 | CCn1cc(N2CCCCCCOc3cc(ccn3)-c3nc(co3)C2=O)cn1 [Compound 50] | – | IC50 [2]: > 10 µM
32 | O=C1c2coc(n2)-c2ccnc(c2)OCCCCCCN1Cc1ccccc1 [Compound 51] | < 10 µM | –
33 | CN1CCCCCCOc2cc(ccn2)-c2nc(co2)C1=O [Compound 52] | – | IC50 [2]: > 10 µM
34 | CCN1CCCCCCOc2cc(ccn2)-c2nc(co2)C1=O [Compound 53] | < 0.1 µM | –
35 | CN(C)CCN1CCCCCCOc2cc(ccn2)-c2nc(co2)C1=O [Compound 54] | < 1 µM | –
36 | CN(C)CCCN1CCCCCCOc2cc(ccn2)-c2nc(co2)C1=O [Compound 55] | – | IC50 [2]: > 10 µM
37 | O=C1c2coc(n2)-c2ccnc(c2)OCCCCCCN1CCN1CCCCC1 [Compound 56] | – | IC50 [2]: > 10 µM
38 | O=C1c2coc(n2)-c2ccnc(c2)OCCCCCCN1CCCN1CCCCC1 [Compound 57] | – | IC50 [2]: > 10 µM
39 | O=C1Nc2ccccc2OCC/C=C/COc2cc(ccn2)-c2nc1co2 [Example 1] | < 0.1 µM | –
40 | O=C1Nc2ccccc2OCCCCNc2cc(ccn2)-c2nc1co2 [Example 70] | – | IC50 [2]: > 10 µM
41 | O=C1NCC(C2CCCCC2)OCCCCCNc2cc(ccn2)-c2nc1co2 (stereo not drawn) [Example 77] | – | IC50 [2]: > 10 µM
42 | Cn1cc(N2CCCCOc3cnccc3-c3nc(co3)C2=O)cn1 [Example 89] | – | IC50 [2]: > 10 µM
43 | Cn1cc2c(n1)C(=O)N(COCC[Si](C)(C)C)CCCCOc1cc(ccn1)-c1nc(cn1COCC[Si](C)(C)C)C(=O)N2 [Example 93] | < 10 µM | –
44 | Cn1cc2c(n1)C(=O)NCCCCOc1cc(ccn1)-c1nc(cn1COCC[Si](C)(C)C)C(=O)N2 [Example 94] | – | IC50 [2]: > 10 µM
45 | C[Si](C)(C)CCOCn1cc2nc1-c1ccnc(c1)CCCCCNC(=O)c1nn(C3CCOCC3)cc1NC2=O [Example 98] | < 10 µM | –
46 | Cn1cc2c(n1)C(=O)NCCCCCc1cc(ccn1)-c1nc(cn1COCC[Si](C)(C)C)C(=O)N2 [Example 99] | < 10 µM | –
47 | CN1CCCOc2cnccc2-c2nc(cs2)C1=O [Example 100] | – | IC50 [2]: > 10 µM
48 | CN1CCCOc2cnccc2-c2nc(c[nH]2)C1=O [Example 101] | – | IC50 [2]: > 10 µM
49 | O=C1c2coc(n2)-c2ccncc2OCCCN1CCCN1CCCCC1 [Example 102] | – | IC50 [2]: > 10 µM

More lines, main results first:

Row | IC50 [1] | SMILES | further results
50 | < 1 µM | O=C1NCCCCCCOc2cc(ccn2)-c2nc1co2 [Compound 58] | –
51 | < 0.1 µM | O=C1c2coc(n2)-c2ccnc(c2)NCCCCCOCC2CCCN12 (stereo not drawn) [Compound 59] | –
52 | < 1 µM | Cn1cc(N2CCCCCOc3cnccc3-c3nc(co3)C2=O)cn1 [Compound 61] | –
53 | < 1 µM | Cn1cc2c(n1)C(=O)NCCCCOc1cnccc1-c1nc(co1)C(=O)N2 [Example 62] | –
54 | < 0.1 µM | Cn1cc2c(n1)C(=O)NCCCCCOc1cnccc1-c1nc(co1)C(=O)N2 [Example 63] | –
55 | < 1 µM | O=C1NCCCCCCCCNc2cc(ccn2)-c2nc1cs2 [Example 64] | –
56 | < 10 µM | CCN1CCCCCCCCN(CC)c2cc(ccn2)-c2nc(cs2)C1=O [Example 65] | –
57 | < 1 µM | CCN1CCCCCCCCNc2cc(ccn2)-c2nc(cs2)C1=O [Example 66] | –
58 | < 1 µM | CCN1CCCCCCCCNC(=O)c2csc(n2)-c2ccnc1c2 [Example 67] | –
59 | < 0.1 µM | O=C1NCCCCCCCCNc2cc(ccn2)-c2nc1co2 [Example 68] | –
60 | < 0.1 µM | CC1CCCCNc2cc(ccn2)-c2nc(co2)C(=O)Nc2ccccc2O1 (stereo not drawn) [Example 69] | –
61 | < 0.1 µM | CC1CCCC(C)Oc2ccccc2NC(=O)c2coc(n2)-c2ccnc(c2)N1 (stereo not drawn) [Example 71] | –
62 | < 0.1 µM | O=C1Nc2ccccc2OCCCCCCn2cc(cn2)-c2nc1cs2 [Example 72] | –
63 | < 0.1 µM | O=C1Nc2cc(Br)ccc2OCCCCCNc2cc(ccn2)-c2nc1cs2 [Example 73] | –
64 | < 10 µM | CC1CNC(=O)c2coc(n2)-c2ccnc(c2)NCCCCCO1 (stereo not drawn) [Example 74] | –
65 | < 1 µM | O=C1NCC(C2CC2)OCCCCCNc2cc(ccn2)-c2nc1co2 (stereo not drawn) [Example 75] | –
66 | < 0.1 µM | O=C1NCC(c2ccccc2)OCCCCCNc2cc(ccn2)-c2nc1co2 (stereo not drawn) [Example 76] | –
67 | < 10 µM | O=C1NCc2ccc(cc2)OCCOc2cc(ccn2)-c2nc1co2 [Example 78] | –

Row | IC50 [1] | SMILES | further results
68 | < 10 µM | O=C1NCC2CCCC(C2)OCCCNc2cc(ccn2)-c2nc1cs2 (stereo not drawn) [Example 80] | –
69 | < 0.1 µM | O=C1Nc2ccccc2OC2CCC(CCc3cc(ccn3)-c3nc1co3)CC2 [Example 81] | –
70 | < 1 µM | O=C1NCC2CCC(CC2)OCCNc2cc(ccn2)-c2nc1co2 [Example 85] | –
71 | < 10 µM | O=C1NCCOC2CCC(CC2)CNc2cc(ccn2)-c2nc1cs2 [Example 88] | –
72 | < 10 µM | Cn1cc2c(n1)C(=O)NCCCCOc1cc(ccn1)-c1nc(c[nH]1)C(=O)N2 [Example 92] | –
73 | < 10 µM | O=C1Nc2cn(C3CCOCC3)nc2C(=O)NCCCCCc2cc(ccn2)-c2nc1c[nH]2 [Example 97] | –
74 | < 10 µM | CN1CCCCCCOc2cc(ccn2)-c2nc(cs2)C1=O [Example 103] | –
75 | < 10 µM | O=C1c2coc(n2)-c2ccnc(c2)OCCCCOCC2CCCN12 (stereo not drawn) [Example 104] | –
76 | < 10 µM | O=C1c2csc(n2)-c2ccnc(c2)OCCCCOCC2CCCN12 (stereo not drawn) [Example 106] | –
77 | < 10 µM | CN1CCN(CCn2ncc3c2C(=O)NCCOCCOc2cc(ccn2)-c2nc(cs2)C(=O)N3)CC1 [Example 141] | –
78 | < 10 µM | CN1CCC(CCn2ncc3c2C(=O)NCCOCCOc2cc(ccn2)-c2nc(cs2)C(=O)N3)CC1 [Example 156] | –
79 | < 10 µM | CC(C)(C)OC(=O)N1CCC(CCn2ncc3c2C(=O)NCCOCCOc2cc(ccn2)-c2nc(cs2)C(=O)N3)CC1 [Example 157] | –
80 | < 0.1 µM | O=C1Nc2cn(C3CCNCC3)nc2C(=O)NCCOCCOc2cc(ccn2)-c2nc1cs2 [Example 165] | –
81 | < 1 µM | CC(C)(C)OC(=O)N1CCNC(=O)c2nn(C3CCOCC3)cc2NC(=O)c2csc(n2)-c2ccnc(c2)OCC1 [Example 167] | –
82 | < 0.1 µM | O=C1Nc2cn(C3CCOCC3)nc2C(=O)NCCNCCCc2cc(ccn2)-c2nc1cs2 [Example 168] | –
83 | < 0.1 µM | CC(C)(C)OC(=O)NCCC(=O)N1CCCc2cc(ccn2)-c2nc(cs2)C(=O)Nc2cn(C3CCOCC3)nc2C(=O)NCC1 [Example 171] | –
84 | < 0.1 µM | CC(C)N1CCCc2cc(ccn2)-c2nc(cs2)C(=O)Nc2cn(C3CCOCC3)nc2C(=O)NCC1 [Example 174] | –
